In patent US8426417B2, “Substituted pyrrolo-pyrimidine derivatives, process for their preparation and their use as kinase inhibitors” (priority 2007, dated 2013):

Biological target: T1, PLK1 enzyme KD (Kinase Domain) 2-345 (Homo sapiens, UniProt P53350)
T1 construct: PLK1 kinase domain (corresponding to residues 2-345) was PCR amplified; His tag (N, cleaved yes); TEV cleavage site (N, cleaved yes); made in house; host or cells: High5 insect cells (baculovirus generated in Sf9)
Assay: Biochemical assay for inhibitors of PLK-1 kinase activity (trans-phosphorylation, Dowex resin, 33P-ATP)
Conditions: PLK1 KD 2-345 3 nM, 40 microM ATP, 85 microM alpha-casein, 60 minutes at room temperature
Method: The inhibitory activity of putative kinase inhibitors and the potency of selected compounds were determined using a trans-phosphorylation assay.
Three cycles of mixing are done immediately after the addition of the resin.

T1 sequence (P53350 2-345): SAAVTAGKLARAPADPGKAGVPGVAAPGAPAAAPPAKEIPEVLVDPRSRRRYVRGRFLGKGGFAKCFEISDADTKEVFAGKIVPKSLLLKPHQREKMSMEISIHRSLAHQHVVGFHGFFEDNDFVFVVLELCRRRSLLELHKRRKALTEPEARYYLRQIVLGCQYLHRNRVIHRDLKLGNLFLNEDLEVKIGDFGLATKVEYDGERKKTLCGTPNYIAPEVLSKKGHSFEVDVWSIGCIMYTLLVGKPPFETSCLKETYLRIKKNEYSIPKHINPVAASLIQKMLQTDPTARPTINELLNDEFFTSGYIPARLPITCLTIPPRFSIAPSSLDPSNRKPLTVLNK

Structure (SMILES): O=C1NCCc2[nH]c(-c3ccnc(Nc4ccccc4)n3)cc21 [Reference Compound]
- IC50: 110 nM
